Test results as given in ChEMBL document CHEMBL1151504, “Structure-activity relationships of double-strand RGD peptides as GPIIb/IIIa receptor antogonists” (Bioorg Med Chem Lett, 1994).
Numbered stars: 1 amine (or outer) side, 2 acyl side, 3 side chain; on linkers, the order of the positions; unused ones are H or OH. Bridge positions count the residues as written; N and C are the ends. Square brackets hold non-standard residues; d marks the D form. Peptide text beside a SMILES is read from it. I, II: the chains in the order shown. * marks the point of attachment. Benzoyl(4-guanidino) = N=C(N)Nc1ccc(C(=O)*)cc1; X1 = NC(=O)c1cc(N[*:1])cc(N[*:2])c1; Adipoyl = O=C(CCCCC(=O)[*:2])[*:1]; Glutaryl = O=C(CCCC(=O)[*:2])[*:1]; Suc = O=C(CCC(=O)[*:2])[*:1]; X2 = O=C1Oc2ccccc2CC1C(=O)*; 3Abz = Nc1cccc(C(=O)O)c1; 4Abz = Nc1ccc(C(=O)O)cc1; 2Abz = Nc1ccccc1C(=O)O; Hexanoyl = CCCCCC(=O)*; Bz = O=C(c1ccccc1)*

Organism: Homo sapiens
Assay: In vitro inhibition of ADP induced human platelet aggregation in platelet rich plasma(PRP) and presence of Tris buffer.
Assay type: functional

| Structure (SMILES) | IC50 [µM] |
| --- | --- |
| CCCCCC(=O)N[C@@H](CCCN=C(N)N)C(=O)NCC(=O)N[C@@H](CC(=O)O)C(=O)N[C@@H](Cc1ccccc1)C(=O)N1CCC[C@H]1C(=O)NCC(=O)Nc1cc(NC(=O)CNC(=O)[C@H]2CCCN2C(=O)[C@@H](Cc2ccccc2)NC(=O)[C@@H](CC(=O)O)NC(=O)CNC(=O)[C@@H](CCCN=C(N)N)NC(=O)CCCCC)cc(C(N)=O)c1 | 0.35 |
| N=C(N)NCCC[C@H](NC(=O)CCCC(=O)N[C@@H](CCCNC(=N)N)C(=O)NCC(=O)N[C@@H](CC(=O)O)C(=O)N[C@@H](Cc1ccccc1)C(=O)O)C(=O)NCC(=O)N[C@@H](CC(=O)O)C(=O)N[C@@H](Cc1ccccc1)C(=O)O (I: RGDF-OH / II: RGDF-OH; linker I:N-II:N via Glutaryl) | 15 |
| NC(N)=NCCC[C@H](NC(=O)C1CC(NC(=O)[C@H](Cc2ccccc2)NC(=O)[C@H](CC(=O)O)NC(=O)CNC(=O)[C@@H](N)CCCN=C(N)N)CC(NC(=O)[C@H](Cc2ccccc2)NC(=O)[C@H](CC(=O)O)NC(=O)CNC(=O)[C@@H](N)CCCN=C(N)N)C1)C(=O)NCC(=O)N[C@@H](CC(=O)O)C(=O)N[C@@H](Cc1ccccc1)C(=O)O (stereo partly specified) | 22 |
| NC(=O)C1CC(NC(=O)[C@H](Cc2ccccc2)NC(=O)[C@H](CC(=O)O)NC(=O)CNC(=O)[C@@H](N)CCCN=C(N)N)CC(NC(=O)[C@H](Cc2ccccc2)NC(=O)[C@H](CC(=O)O)NC(=O)CNC(=O)[C@@H](N)CCCN=C(N)N)C1 (stereo partly specified) | 50 |
| NCC(=O)N[C@@H](CCCN=C(N)N)C(=O)NCC(=O)N[C@@H](CC(=O)O)C(=O)N[C@@H](Cc1ccccc1)C(=O)NCC(=O)Nc1cccc(C(=O)NCC(=O)N[C@@H](CCCN=C(N)N)C(=O)NCC(=O)N[C@@H](CC(=O)O)C(=O)N[C@@H](Cc2ccccc2)C(=O)O)c1 (H-GRGDFG[3Abz]GRGDF-OH) | 19 |
| N=C(N)NCCC[C@@H](NC(=O)c1ccccc1C(=O)N[C@@H](CCCN=C(N)N)C(=O)NCC(=O)N[C@@H](CC(=O)O)C(=O)N[C@@H](Cc1ccccc1)C(=O)O)C(=O)NCC(=O)N[C@H](CC(=O)O)C(=O)N[C@H](Cc1ccccc1)C(=O)O | 13 |
| NCC(=O)N[C@@H](CCCN=C(N)N)C(=O)NCC(=O)N[C@@H](CC(=O)O)C(=O)N[C@@H](Cc1ccccc1)C(=O)NCC(=O)Nc1ccccc1C(=O)NCC(=O)N[C@@H](CCCN=C(N)N)C(=O)NCC(=O)N[C@@H](CC(=O)O)C(=O)N[C@@H](Cc1ccccc1)C(=O)O (H-GRGDFG[2Abz]GRGDF-OH) | 63 |
| N=C(N)NCCC[C@H](NC(=O)c1ccccc1)C(=O)NCC(=O)N[C@@H](CC(=O)O)C(=O)N[C@@H](Cc1ccccc1)C(=O)N1CCC[C@H]1C(=O)NCCCC[C@H](NC(=O)[C@@H]1CCCN1C(=O)[C@H](Cc1ccccc1)NC(=O)[C@H](CC(=O)O)NC(=O)CNC(=O)[C@H](CCCN=C(N)N)NC(=O)c1ccccc1)C(N)=O (I: Bz-RGDFPK-NH2 / II: Bz-RGDFP; amide I:6-II:C) | 2.2 |
| N=C(N)NCCC[C@H](NC(=O)CCCCC(=O)N[C@@H](CCCNC(=N)N)C(=O)NCC(=O)N[C@@H](CC(=O)O)C(=O)N[C@@H](Cc1ccccc1)C(=O)O)C(=O)NCC(=O)N[C@@H](CC(=O)O)C(=O)N[C@@H](Cc1ccccc1)C(=O)O (I: RGDF-OH / II: RGDF-OH; linker I:N-II:N via Adipoyl) | 14 |
| N=C(N)NCCC[C@H](NC(=O)C1Cc2ccccc2OC1=O)C(=O)NCC(=O)N[C@@H](CC(=O)O)C(=O)N[C@@H](Cc1ccccc1)C(=O)N1CCC[C@H]1C(=O)NCCCC[C@H](NC(=O)[C@@H]1CCCN1C(=O)[C@H](Cc1ccccc1)NC(=O)[C@H](CC(=O)O)NC(=O)CNC(=O)[C@H](CCCNC(=N)N)NC(=O)C1Cc2ccccc2OC1=O)C(N)=O (stereo partly specified) (I: X2-RGDFPK-NH2 / II: X2-RGDFP; amide I:6-II:C) | 2 |
| N=C(N)NCCC[C@H](NC(=O)CCC(=O)N[C@@H](CCCNC(=N)N)C(=O)NCC(=O)N[C@@H](CC(=O)O)C(=O)N[C@@H](Cc1ccccc1)C(=O)O)C(=O)NCC(=O)N[C@@H](CC(=O)O)C(=O)N[C@@H](Cc1ccccc1)C(=O)O (I: RGDF-OH / II: RGDF-OH; linker I:N-II:N via Suc) | 15 |
| NCC(=O)N[C@@H](CCCN=C(N)N)C(=O)NCC(=O)N[C@@H](CC(=O)O)C(=O)N[C@@H](Cc1ccccc1)C(=O)NCC(=O)Nc1cc(NC(=O)CNC(=O)[C@H](Cc2ccccc2)NC(=O)[C@H](CC(=O)O)NC(=O)CNC(=O)[C@H](CCCN=C(N)N)NC(=O)CN)cc(C(=O)NCC(=O)N[C@@H](CCCN=C(N)N)C(=O)NCC(=O)N[C@@H](CC(=O)O)C(=O)N[C@@H](Cc2ccccc2)C(N)=O)c1 | 33 |
| N=C(N)NCCC[C@H](NC(=O)c1ccccc1)C(=O)NCC(=O)N[C@@H](CC(=O)O)C(=O)N[C@@H](Cc1ccccc1)C(=O)NC1CC(NC(=O)[C@H](Cc2ccccc2)NC(=O)[C@H](CC(=O)O)NC(=O)CNC(=O)[C@H](CCCN=C(N)N)NC(=O)c2ccccc2)CC(C(=O)N[C@@H](CCCN=C(N)N)C(=O)NCC(=O)N[C@@H](CC(=O)O)C(=O)N[C@@H](Cc2ccccc2)C(=O)O)C1 (stereo partly specified) | 7.4 |
| NCC(=O)N[C@@H](CCCN=C(N)N)C(=O)NCC(=O)N[C@@H](CC(=O)O)C(=O)N[C@@H](Cc1ccccc1)C(=O)NCC(=O)Nc1ccc(C(=O)NCC(=O)N[C@@H](CCCN=C(N)N)C(=O)NCC(=O)N[C@@H](CC(=O)O)C(=O)N[C@@H](Cc2ccccc2)C(=O)O)cc1 (H-GRGDFG[4Abz]GRGDF-OH) | 35 |
| N=C(N)NCCC[C@H](NC(=O)[C@H](CO)NC(=O)c1ccc(NC(=N)N)cc1)C(=O)NCC(=O)N[C@@H](CC(=O)O)C(=O)N[C@@H](Cc1ccccc1)C(=O)N1CCC[C@H]1C(=O)NCCCC[C@H](NC(=O)[C@@H]1CCCN1C(=O)[C@H](Cc1ccccc1)NC(=O)[C@H](CC(=O)O)NC(=O)CNC(=O)[C@H](CCCNC(=N)N)NC(=O)[C@H](CO)NC(=O)c1ccc(NC(=N)N)cc1)C(N)=O (I: {Benzoyl(4-guanidino)}-SRGDFPK-NH2 / II: {Benzoyl(4-guanidino)}-SRGDFP; amide I:7-II:C) | 0.087 |
| NC(=O)c1cc(NC(=O)CNC(=O)[C@@H]2CCCN2C(=O)[C@H](Cc2ccccc2)NC(=O)[C@H](CC(=O)O)NC(=O)CNC(=O)[C@@H](N)CCCN=C(N)N)cc(NC(=O)CNC(=O)[C@@H]2CCCN2C(=O)[C@H](Cc2ccccc2)NC(=O)[C@H](CC(=O)O)NC(=O)CNC(=O)[C@@H](N)CCCN=C(N)N)c1 (I: H-RGDFPG / II: H-RGDFPG; linker I:C-II:C via X1) | 13 |
| CCCCCC(=O)N[C@@H](CCCN=C(N)N)C(=O)NCC(=O)N[C@@H](CC(=O)O)C(=O)N[C@@H](Cc1ccccc1)C(=O)N1CCC[C@H]1C(=O)NCCCC[C@H](NC(=O)[C@@H]1CCCN1C(=O)[C@H](Cc1ccccc1)NC(=O)[C@H](CC(=O)O)NC(=O)CNC(=O)[C@H](CCCN=C(N)N)NC(=O)CCCCC)C(N)=O (I: Hexanoyl-RGDFPK-NH2 / II: Hexanoyl-RGDFP; amide I:6-II:C) | 1.2 |
| CCCCCC(=O)N[C@@H](CCCN=C(N)N)C(=O)NCC(=O)N[C@@H](CC(=O)O)C(=O)N[C@@H](Cc1ccccc1)C(=O)NCCCC[C@H](NC(=O)[C@H](Cc1ccccc1)NC(=O)[C@H](CC(=O)O)NC(=O)CNC(=O)[C@H](CCCN=C(N)N)NC(=O)CCCCC)C(N)=O | 2.3 |
| N=C(N)NCCC[C@H](NC(=O)c1ccccc1)C(=O)NCC(=O)N[C@@H](CC(=O)O)C(=O)N[C@@H](Cc1ccccc1)C(=O)NCCCC[C@H](NC(=O)[C@H](Cc1ccccc1)NC(=O)[C@H](CC(=O)O)NC(=O)CNC(=O)[C@H](CCCN=C(N)N)NC(=O)c1ccccc1)C(N)=O | 2.6 |
| NC(=O)[C@H](CCCCNC(=O)[C@H](Cc1ccccc1)NC(=O)[C@H](CC(=O)O)NC(=O)CNC(=O)[C@@H](N)CCCN=C(N)N)NC(=O)[C@H](Cc1ccccc1)NC(=O)[C@H](CC(=O)O)NC(=O)CNC(=O)[C@@H](N)CCCN=C(N)N | 35 |
| CC(=O)N[C@@H](CCCN=C(N)N)C(=O)NCC(=O)N[C@@H](CC(=O)O)C(=O)N[C@@H](Cc1ccccc1)C(=O)N1CCC[C@H]1C(=O)NCCCC[C@H](NC(=O)[C@@H]1CCCN1C(=O)[C@H](Cc1ccccc1)NC(=O)[C@H](CC(=O)O)NC(=O)CNC(=O)[C@H](CCCN=C(N)N)NC(C)=O)C(N)=O (I: Ac-RGDFPK-NH2 / II: Ac-RGDFP; amide I:6-II:C) | 4.1 |
